Results: US20080194585A1, “Fungicidal Pyrazine Derivatives” (priority 2005, published 2008)
Marks after values point to notes of the source that are not given here.

What was measured:
[1] = test system: Erysiphe graminis f. sp. tritici; experiment: Test L: wheat powdery mildew, preventive spray on wheat seedlings
[2] = test system: Colletotrichum orbiculare; experiment: Test B: cucumber Colletotrichum anthracnose, preventive spray on cucumber seedlings
Pythium aphanidermatum = experiment: Test A: bluegrass pythium blight, preventive spray on bluegrass seedlings
Phytophthora infestans = experiment: whole plant or invertebrate; format: in vivo
Septoria tritici = experiment: Test J: wheat leaf blotch, preventive spray on wheat seedlings; format: in vivo
Description: A dash (-) indicates no test results.

Sclerotinia sclerotiorum = experiment: Test C: cucumber white mold, preventive spray on cucumber seedlings
Rhizoctonia oryzae = experiment: Test G: turf brown patch, preventive spray on creeping bent grass seedlings
Description: (the causal agent of turf brown patch) and incubated in a saturated atmosphere at 27° C. for 24 h, and then moved to a growth chamber at 27° C. for 5 days, after which disease ratings were made.

[3] = test system: Puccinia recondita f. sp. tritici; experiment: Test K: wheat leaf rust, preventive spray on wheat seedlings
Plasmopara viticola = experiment: Test D: grape downy mildew, spray after inoculation of grape seedlings; format: in vivo
Description: Upon removal, disease ratings were made. […] A dash (-) indicates no test results.

Botrytis cinerea = experiment: Test E: tomato botrytis, preventive spray on tomato seedlings
Septoria nodorum = experiment: Test H: wheat glum blotch, preventive spray on wheat seedlings
Description: (the causal agent of wheat glum blotch) and incubated in a saturated atmosphere at 20° C. for 48 h, and then moved to a growth chamber at 22° C. for 5 days, after which disease ratings were made.

| Compound | Test L disease control rating ([1]; 200 ppm) | Test B disease control rating ([2]; 200 ppm) | Test A disease control rating (Pythium aphanidermatum; 200 ppm) | Test F disease control rating (Phytophthora infestans; 200 ppm) | Test J disease control rating (Septoria tritici; 200 ppm) | Test C disease control rating (Sclerotinia sclerotiorum; 200 ppm) | Test G disease control rating (Rhizoctonia oryzae; 200 ppm) | Test K disease control rating ([3]; 200 ppm) | Test D disease control rating (Plasmopara viticola; 200 ppm) | Test E disease control rating (Botrytis cinerea; 200 ppm) | Test H disease control rating (Septoria nodorum; 200 ppm) | also measured |
| --- | --- | --- | --- | --- | --- | --- | --- | --- | --- | --- | --- | --- |
| Cc1ccc(-c2nc(Cl)c(-c3c(F)cccc3F)n(CC(C)C)c2=O)nc1 [Compound 209, 5-Chloro-6-(2,6-difluorophenyl)-1-(2-methylpropyl)-3-(5-methyl-2-pyridinyl)-2(1H)-pyrazinone] |  |  |  |  |  |  |  |  |  |  |  | pest or weed control at 200 ppm ([1]; Blumeria graminis, in Triticum aestivum, 168 h, read-out: Test L disease control rating, 200 ppm): 0%; pest or weed control at 200 ppm ([2]; Colletotrichum orbiculare, in Cucumis sativus, 144 h, read-out: Test B disease control rating, 200 ppm): 54%; pest or weed control at 200 ppm (Pythium aphanidermatum; Pythium aphanidermatum, 120 h, read-out: Test A disease control rating): 56%; pest or weed control at 200 ppm (Phytophthora infestans; Phytophthora infestans, in Solanum lycopersicum, topical, 144 h, read-out: Test F disease control rating): 0%; pest or weed control at 200 ppm (Septoria tritici; Zymoseptoria tritici, 528 h, 200 ppm, read-out: Test J disease control rating): 96%; pest or weed control at 200 ppm (Sclerotinia sclerotiorum; Sclerotinia sclerotiorum, in Cucumis sativus, 168 h, read-out: Test C disease control rating, 200 ppm): 0%; pest or weed control at 200 ppm (Rhizoctonia oryzae; Waitea circinata, in Agrostis stolonifera, topical, 144 h, read-out: Test G disease control rating, 200 ppm): 34%; pest or weed control at 200 ppm ([3]; Puccinia recondita, in Triticum aestivum, 192 h, read-out: Test K disease control rating): 85%; pest or weed control at 200 ppm (Plasmopara viticola; Plasmopara viticola, 168 h, 200 ppm, read-out: Test D disease control rating): 8%; pest or weed control at 200 ppm (Botrytis cinerea; Botrytis cinerea, in Solanum lycopersicum, topical, 72 h, read-out: Test E disease control rating): 99%; pest or weed control at 200 ppm (Septoria nodorum; Parastagonospora nodorum, in Triticum aestivum, topical, 168 h, read-out: Test H disease control rating, 200 ppm): 0% |
| CCC(C)n1c(-c2c(F)cccc2F)c(Cl)nc(-n2cncn2)c1=O (centres unmarked) [compound 32] | 0% | 0% | 0% | 0% | 32% | 95% | 92% | 100% | 15% | 100% | 100% |  |
| CC(C)n1c(-c2c(F)cccc2F)c(Cl)nc(-n2cncn2)c1=O [compound 33] | 0% | 0% | 0% | 0% | 100% | 16% | 100% | 100% | 34% | 100% | 100% |  |
| CCCn1c(-c2c(F)cccc2F)c(Cl)nc(-n2cncn2)c1=O [compound 34] | 89% | 0% | 0% | 26% | 97% | 16% | 100% | 99% | 10% | 100% | 100% |  |
| CC(C)CCn1c(-c2c(F)cccc2F)c(Cl)nc(-n2cccn2)c1=O [compound 35] | 97% | 0% | 0% | 0% | 100% | 0% | 90% | 88% | 5% | 100% | 100% |  |
| C=CCn1c(-c2c(F)cccc2F)c(Cl)nc(-n2cccn2)c1=O [compound 58] | 99% | 99% | 0% | 0% | 98% | 0% | 92% | 100% | 47% | 100% | 100% |  |
| CC(C)Cn1c(-c2c(F)cccc2F)c(Cl)nc(-c2ccncc2)c1=O [compound 84] |  |  |  |  |  |  |  |  |  |  |  | Test L disease control rating ([1]; 40 ppm (*)): 0* %; Test B disease control rating ([2]; 40 ppm (*)): 0* %; Test A disease control rating (Pythium aphanidermatum; 40 ppm (*)): 0* %; Test F disease control rating (Phytophthora infestans; 40 ppm (*)): 0* %; Test J disease control rating (Septoria tritici; 40 ppm (*)): 20* %; Test C disease control rating (Sclerotinia sclerotiorum; 40 ppm (*)): 0* %; Test G disease control rating (Rhizoctonia oryzae; 40 ppm (*)): 0* %; Test K disease control rating ([3]; 40 ppm (*)): 0* %; Test D disease control rating (Plasmopara viticola; 40 ppm (*)): 5* %; Test E disease control rating (Botrytis cinerea; 40 ppm (*)): 0* %; Test H disease control rating (Septoria nodorum; 40 ppm (*)): 0* % |
| COCCn1c(-c2c(F)cccc2F)c(Cl)nc(-n2cccn2)c1=O [compound 95] | 0% | 0% | 0% | 0% | 95% | 0% | 68% | 94% | 92% | 99% | 100% |  |
| CC(C)Cn1c(-c2c(F)cccc2F)c(Cl)nc(-c2nccs2)c1=O [compound 101] |  |  | 0% | 0% |  | 0% |  |  | 15% |  |  | Test L disease control rating ([1]; 40 ppm (*)): 0* %; Test B disease control rating ([2]; 40 ppm (*)): 0* %; Test J disease control rating (Septoria tritici; 40 ppm (*)): 53* %; Test G disease control rating (Rhizoctonia oryzae; 40 ppm (*)): 0* %; Test K disease control rating ([3]; 40 ppm (*)): 0* %; Test E disease control rating (Botrytis cinerea; 40 ppm (*)): 0* %; Test H disease control rating (Septoria nodorum; 40 ppm (*)): 0* % |
| CC(C)Cn1c(-c2cc(F)cc(F)c2F)c(Cl)nc(-n2cncn2)c1=O [compound 138] |  |  |  |  |  |  |  |  |  |  |  | Test L disease control rating ([1]; 100 ppm (#)): 0# %; Test B disease control rating ([2]; 100 ppm (#)): 0# %; Test A disease control rating (Pythium aphanidermatum; 100 ppm (#)): 0# %; Test F disease control rating (Phytophthora infestans; 100 ppm (#)): 0# %; Test J disease control rating (Septoria tritici; 100 ppm (#)): 46# %; Test C disease control rating (Sclerotinia sclerotiorum; 100 ppm (#)): 24# %; Test G disease control rating (Rhizoctonia oryzae; 100 ppm (#)): 55# %; Test K disease control rating ([3]; 100 ppm (#)): 0# %; Test D disease control rating (Plasmopara viticola; 100 ppm (#)): 12# %; Test E disease control rating (Botrytis cinerea; 100 ppm (#)): 83# %; Test H disease control rating (Septoria nodorum; 100 ppm (#)): 0# % |
| CC(C)Cn1c(-c2ccccc2C(F)(F)F)c(Cl)nc(-n2cncn2)c1=O [compound 140] | 0% | 0% | 0% | 0% | 41% | 83% | 34% | 0% | 12% | 99% | 0% |  |
| CC(C)Cn1c(-c2ccccc2C(F)(F)F)c(Cl)nc(-n2cccn2)c1=O [compound 141] | 79% | 96% | 0% | 0% | 99% | 63% | 96% | 60% | 12% | 92% | 73% |  |
| CC(C)Cn1c(-c2ccc(F)cc2)c(Cl)nc(-n2cncn2)c1=O [compound 142] | 81% | 16% | 64% | 0% | 100% | 0% | 0% | 27% | 4% | 100% | 100% |  |
| CC(C)Cn1c(-c2ccc(F)cc2)c(Cl)nc(-n2cccn2)c1=O [compound 143] | 0% | 0% | 0% | 0% | 100% | 0% | 47% | 68% | 12% | 99% | 0% |  |
| CC(C)Cn1c(-c2ccc(C#N)cc2)c(Cl)nc(-n2cncn2)c1=O [compound 144] | 0% | 0% | 0% | 0% | 89% | 0% | 0% | 0% | 12% | 0% | 0% |  |
| CC(C)Cn1c(-c2ccc(C#N)cc2)c(Cl)nc(-n2cccn2)c1=O [compound 145] | 0% | 0% | 0% | 0% | 100% | 49% | 40% | 68% | 20% | 99% | 0% |  |
